Laboratory results published in patent US20160160267A1, “COMPOSITION FOR EVALUATING OR PREDICTING PATIENTS THERAPEUTIC RESPONSE TO METHORMIN” (SNU R&DB FOUNDATION, priority 2013, published 2016).

Columns and labels:
[1] = test system: TNFα (Tumor necrosis factor alpha); assay: Expression of TNFα in epididymal adipose tissue, quantitative PCR relative to GAPDH; format: in vivo, mouse (C57BL/6); conditions: female, metformin during high-fat diet, P=0.001
Description: (§1) FIG. 4a to FIG. 5b comparatively analyze the amount of gene expression of internal control GAPDH and biomarkers using relative quantification method (2^−ΔΔCt(ΔΔCt=(Ct.Target−Ct.GAPDH)Group1−(Ct.Target−Ct.GAPDH)Group2)). Statistical significance is assessed by Mann-Whitney U Test. For quantification, SYBR qPCR was repeatedly conduced three times.
(§2) Basically, body weight and fasting glucose were confirmed once a week. To confirm impaired glucose tolerance, oral glucose tolerance test (OGTT) was conducted. And, total cholesterol, high-density lipoprotein (HDL), low-density lipoprotein (LDL) were analyzed in serum, and insulin concentration in blood was measured using flow cytometry. To grasp the expression degree of metabolic and inflammatory factors, liver, epididymal adipose tissue, small intestine were homogenized to extract total RNA, which was quantitatively analyzed by polymerase chain reaction (PCR). In the liver, AMPKα1 (AMP-activated protein kinase alpha 1), PPARα (Peroxisome proliferator-activated eceptor alpha), GLUT2 (Glucose transporter 2), G6Pase (Glucose 6-phosphatase) were measured; in the adipose tissue, adiponectin, leptin, MCP-1 (Monocyte chemoattractant protein-1), TNFα (Tumor necrosis factor alpha) IL-6 (Interleukin-6) were measured; and in the small intestine, MUC2 and MUC5 (Mucin genes) were measured. […]

[2] = test system: AMPKα1 (AMP-activated protein kinase alpha 1); assay: Expression of AMPKα1 in liver, quantitative PCR relative to GAPDH; format: in vivo, mouse (C57BL/6); conditions: female, metformin during high-fat diet, P=0.023
Description: as §1, §2

leptin = assay: Expression of leptin in epididymal adipose tissue, quantitative PCR relative to GAPDH; format: in vivo, mouse (C57BL/6); conditions: male, metformin during high-fat diet, P=0.004
Description: as §1, §2

MUC5 = assay: Expression of mucin gene MUC5 in small intestine; format: in vivo, mouse (C57BL/6); conditions: female, after administration of metformin
Description: as §1, §2

MUC2 = assay: Expression of mucin gene MUC2 in small intestine; format: in vivo, mouse (C57BL/6); conditions: female, after administration of metformin
Description: as §1, §2

[3] = test system: MCP-1 (Monocyte chemoattractant protein-1); assay: Expression of MCP-1 in epididymal adipose tissue, quantitative PCR relative to GAPDH; format: in vivo, mouse (C57BL/6); conditions: male, metformin during high-fat diet, P=0.008
Description: as §1, §2

PPARα = assay: Expression of PPARα in liver, quantitative PCR relative to GAPDH; format: in vivo, mouse (C57BL/6); conditions: female, metformin during high-fat diet, P=0.008
Description: as §1, §2

[4] = Tissue inspection (tissue weights, H&E staining, steatosis); conditions: metformin during high-fat diet, compared to high-fat diet group
Description: Male and female C57BL/6 species of the same age of the week were purchased from Orientbio. […] Epididymis adipose tissue, liver, small intestine, pancreas, and blood were extracted, and among them, liver, small intestine, and pancreas were fixed to 4% paraformaldehyde to conduct hematoxylin and eosin (H&E) staining. Briefly, tissue was cut to 4 μm, stained with alum haematoxylin and rinsed with water flow. Thereafter, the colour was changed with 0.3% acid alcohol, followed by additional staining with eosin, dehydrating and fixing. The degree of steatosis and inflammation of the tissue was read by pathologist.

[5] = Metabolism-related index (body weight, fasting glucose, serum total cholesterol, HDL) in high-fat diet mouse; format: in vivo, mouse (C57BL/6); conditions: high-fat diet mice
Description: Basically, body weight and fasting glucose were confirmed once a week. To confirm impaired glucose tolerance, oral glucose tolerance test (OGTT) was conducted. And, total cholesterol, high-density lipoprotein (HDL), low-density lipoprotein (LDL) were analyzed in serum, and insulin concentration in blood was measured using flow cytometry. To grasp the expression degree of metabolic and inflammatory factors, liver, epididymal adipose tissue, small intestine were homogenized to extract total RNA, which was quantitatively analyzed by polymerase chain reaction (PCR). In the liver, AMPKα1 (AMP-activated protein kinase alpha 1), PPARα (Peroxisome proliferator-activated eceptor alpha), GLUT2 (Glucose transporter 2), G6Pase (Glucose 6-phosphatase) were measured; in the adipose tissue, adiponectin, leptin, MCP-1 (Monocyte chemoattractant protein-1), TNFα (Tumor necrosis factor alpha) IL-6 (Interleukin-6) were measured; and in the small intestine, MUC2 and MUC5 (Mucin genes) were measured. For comparative analysis of the expression degree, relative quantification using housekeeping gene GAPDH was applied, and statistical significance was confirmed with Mann-Whitney U test. As the primer for MUC5AC, QuantiTect® Primer Assay (Cat. no.: QT01161104, Qiagen) was used.

[6] = test system: GLUT2 (Glucose transporter 2); assay: Expression of GLUT2 in liver, quantitative PCR relative to GAPDH; format: in vivo, mouse (C57BL/6); conditions: female, metformin during high-fat diet, P=0.007
Description: as §1, §2

[7] = test system: rumen microorganism communities; assay: Analysis of rumen microbiome in feces samples (16S rRNA V2-V3 pyrosequencing, UniFrac, PCoA, LEfSe); format: in vivo, mouse (C57BL/6)
Description: Total genome DNA of bacteria in the feces sample was extracted using a kit. The V2 region and the V3 region of 16S rRNA gene were amplified through PCR using bar coded universal primer as described in Table 3 and Table 4, and pyrosequencing was conducted using GS-FLX system. For the secured nucleotide sequence, data was analyzed using QIIME (Quantitative Insights Into Microbial Ecology) 1.5.0 (http://qiime.sourceforge.net). Before the sequence analysis, noise removal of the sequence data set was conducted, and low quality sequence less than 200 bp was removed. To the nucleotide sequence, OUT (Operational taxonomic units) was assigned based on 97% analogous level to conduct system analysis. For the nucleotide sequence obtained from each feces sample, UniFrac, PCoA (Principal Coordinate Analysis), LEfSe (LDA Effect Size) analysis were conducted for comparative analysis. And, based on the KEGG (Kyoto Encyclopedia of Genes and Genomes) pathway data from microbiome, PICRUSt (Phylogenetic Investigation of Communities by Reconstruction of Unobserved States) was conducted to predict a specifically increasing metabolic pathway.

[8] = test system: G6Pase (Glucose 6-phosphatase); assay: Expression of G6Pase in liver, quantitative PCR relative to GAPDH; format: in vivo, mouse (C57BL/6); conditions: male, metformin during high-fat diet
Description: as §1, §2

[9] = 10 weeks after metformin administration
[10] = after administration of metformin (300 mg/kg daily, oral)
[11] = after administration of metformin during high-fat diet

Question: What does the source list for CN(C)C(=N)NC(=N)N [metformin, N,N-Dimethylimidodicarbonimidic diamide]?
Answer: TNFα expression in epididymal adipose tissue [1]: significantly decreased; AMPKα expression in liver [2]: decreased; leptin expression in epididymal adipose tissue (leptin): increased; expression degree of MUC5 in small intestine (MUC5): significantly increased; expression degree of MUC2 in small intestine (MUC2): significantly increased; MCP-1 expression in epididymal adipose tissue [3]: increased; PPARα expression in liver (PPARα): increased; liver steatosis [4]: significant difference; weight of adipose tissue [4]: significantly decreased; weight of liver [4]: significantly decreased; high density lipoprotein (HDL) [5, 9]: significantly decreased; total cholesterol [5, 9]: significantly decreased; blood glucose (fasting glucose) [5, 10]: significantly decrease; body weight [5, 10]: significantly decrease; GLUT2 expression in liver [6]: decreased; proportion of phylum Proteobacteria [7, 11]: 2.1±2.8%; proportion of phylum Verrucomicrobia [7, 11]: 12.4±5.3%; proportion of phylum Bacteroidetes ([7]; high-fat diet, after administration of metformin): 77.5±8.7%; microbial diversity in feces ([7]; metformin administration during high-fat diet): decreased; microbial diversity in feces ([7]; metformin administration during normal diet): did not cause any change in diversity; Akkermansia abundance, at species level ([7]; metformin during high-fat diet): significantly increased; Bacteroides abundance, at species level ([7]; metformin during high-fat diet): significantly increased; relative bacterial abundance by LDA scores, genus Akkermansia ([7]; metformin during high-fat diet): increased; relative bacterial abundance by LDA scores, genus Blautia ([7]; metformin during high-fat diet): increased; relative bacterial abundance by LDA scores, genus Clostridium ([7]; metformin during high-fat diet): decreased; relative bacterial abundance by LDA scores, genus Shigella ([7]; metformin during high-fat diet): increased; UniFrac distance to the group treated with high-fat diet only ([7]; metformin during high-fat diet, versus difference of the diet-change group (HFD-ND) to HFD only): larger; relative bacterial abundance, Alistipes ([7]; metformin during normal diet): increased; relative bacterial abundance, Lactobacillus iners ([7]; metformin during normal diet): relatively decreased; relative bacterial abundance, genus Akkermansia ([7]; metformin during normal diet): significantly increased; relative bacterial abundance, genus Clostridium ([7]; metformin during normal diet): significantly increased; G6Pase expression in liver [8]: significantly decreased
